Our source for the inhibition values is patent US20230080054A1 (ILDONG PHARMACEUTICAL CO., LTD., priority 2021, published 2023).

The target in this assay is T1, human ANO6 (Homo sapiens, UniProt Q4KMQ2).
T1 construct: expressed in transfected cells
T1 sequence (Q4KMQ2 1-931 isoform Q4KMQ2-2): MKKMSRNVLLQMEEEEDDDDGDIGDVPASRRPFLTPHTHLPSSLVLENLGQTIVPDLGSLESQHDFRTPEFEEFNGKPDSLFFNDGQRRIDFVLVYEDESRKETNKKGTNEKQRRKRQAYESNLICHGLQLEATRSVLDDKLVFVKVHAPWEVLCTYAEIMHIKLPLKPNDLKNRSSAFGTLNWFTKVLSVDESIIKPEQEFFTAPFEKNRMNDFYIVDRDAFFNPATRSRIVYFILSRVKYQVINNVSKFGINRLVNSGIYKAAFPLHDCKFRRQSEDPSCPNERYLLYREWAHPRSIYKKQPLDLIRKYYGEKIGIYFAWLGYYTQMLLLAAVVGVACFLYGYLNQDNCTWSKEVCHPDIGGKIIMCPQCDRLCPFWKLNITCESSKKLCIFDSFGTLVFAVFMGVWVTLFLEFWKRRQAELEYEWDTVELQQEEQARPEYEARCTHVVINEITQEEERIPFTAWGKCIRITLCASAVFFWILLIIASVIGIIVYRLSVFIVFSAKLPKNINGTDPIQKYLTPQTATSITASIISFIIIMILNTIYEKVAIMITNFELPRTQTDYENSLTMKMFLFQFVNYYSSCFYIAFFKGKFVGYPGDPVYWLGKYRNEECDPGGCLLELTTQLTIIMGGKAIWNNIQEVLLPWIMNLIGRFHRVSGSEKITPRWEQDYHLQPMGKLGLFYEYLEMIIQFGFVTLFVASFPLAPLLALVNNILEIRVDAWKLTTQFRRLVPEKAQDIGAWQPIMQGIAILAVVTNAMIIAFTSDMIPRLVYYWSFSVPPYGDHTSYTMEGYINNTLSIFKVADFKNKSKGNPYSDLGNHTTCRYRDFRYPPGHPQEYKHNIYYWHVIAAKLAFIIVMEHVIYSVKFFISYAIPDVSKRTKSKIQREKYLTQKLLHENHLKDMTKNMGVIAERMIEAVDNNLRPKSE
As to the kind of experiment: LACT C2 assay (phosphatidylserine scramblase function assay). In kind it is cell-based. Particulars: FRT cells expressing human ANO6, 10 μM ionomycin; for inhibition at 1 µM: test compound 1 μM, read-out: Inhibition Level 1 μM; for inhibition at 0.1 µM: test compound 100 nM, read-out: Inhibition Level 100 nM. The text has this:
Phosphatidylserine Scramblase Function Assay
1. Materials and Instruments
Ionomycin (Alomonelab, cat. #I-700), DAPI (Sigma-Aldrich, cat. #D8417), paraformaldehyde (Biosesang, cat. #P2031), Lionheart FX Automated Microscope (BioTek, Winooski), Python3 (Python Software Foundation), and OpenCV (Open Source Computer Vision Library).
Fisher rat thyroid (FRT) cells stably expressing human ANO6 (GenBank accession no. NP_001191732.1, provided by J. H. Nam, Dongguk University College of Medicine, Korea) were grown in DMEM/Ham's F-12 (1:1) medium with 10% FBS, 2 mM L-549 glutamine, 100 units/mL penicillin, and 100 μg/mL streptomycin at 37° C. and 5% CO2.
FRT cells stably expressing human ANO6 were plated in 96 well black-walled microplates at a density of 2×10^4 cells/well. After 24 hours incubation, cells were treated with the test compound (dissolved in DMSO) were treated to each well to become 1% v/v DMSO for 10 minutes, then 10 μM of ionomycin was applied. Finally each well was washed with 200 μL PBS after 10 minutes. After washout, the phosphatidylserine and nuclei were stained with PBS containing 500 nM Lactadherin-C2 (Lact-C2)-GFP, then cells were washed with 200 μL PBS. Cells were fixed with 4% paraformaldehyde for 5 minutes at room temperature. For morphological analysis, some cells were stained with fluorescently labelled DAPI for 15 minutes at room temperature. Quantitative analysis of the fluorescence intensity of Lact-C2-GFP was performed with Python3 and OpenCV. OpenCV was used to remove background and noise pixels, and the sum of all remaining pixel values was used to evaluate the fluorescence intensity of Lact-C2-GFP.
The inhibitory activity (%) of each of the test compounds was obtained by the following steps. In each row of 96 well plate, the inhibitory activity of each of the test compounds was calculated as percentages. The inhibitory activity of a negative control group to which neither compounds nor ionomycin were treated was set to be 100%, and the inhibitory activity of a positive control group to which ionomycin was treated and compounds were not treated was set to be 0%. The assay was performed in triplicate, and the results were averaged.

Regarding `COC(=O)c1ccc(CCNC(=O)c2cccc(Nc3ncc(-c4cccc(F)c4)cn3)c2)cc1` [Compound 126, methyl 4-(2-(3-((5-(3-fluorophenyl)pyrimidin-2-yl)amino)benzamido)ethyl)benzoate], the inhibition at 1 µM is less than 30%.
Take `N#CC1(NC(=O)c2cccc(Nc3ccc(-c4cccc(F)c4)nn3)c2)CC1` [Compound 223, N-(1-cyanocyclopropyl)-3-((6-(3-fluorophenyl)pyridazin-3-yl)amino)benzamide]: the inhibition at 0.1 µM is less than 30% and the inhibition at 1 µM lay in the range of 30 to 60%.
For `O=C(NCc1ccccc1Cl)c1cccc(Nc2ncc(-c3cccc(F)c3)cn2)c1` [Compound A98], in that order: less than 30% and 30 to 60%.
For `N#Cc1cccc(NC(=O)c2cccc(Nc3ncc(-c4cccc(F)c4)cn3)c2)c1` [Compound 136, N-(3-cyanophenyl)-3-((5-(3-fluorophenyl)pyrimidin-2-yl)amino)benzamide], in that order: less than 30% and no less than 60%.
With `O=C(NCC1(O)CC1)c1cccc(Nc2ccc(-c3ccccc3)nn2)c1` [Compound 237, N-((1-hydroxycyclopropyl)methyl)-3-((6-phenylpyridazin-3-yl)amino)benzamide], the inhibition at 0.1 µM is less than 30% and the inhibition at 1 µM is less than 30%.
Turning to `CN1CCN(c2cc(CNC(=O)c3cccc(Nc4ccc(-c5ccccc5)nn4)c3)ccc2F)CC1` [Compound 227, N-(4-fluoro-3-(4-methylpiperazin-1-yl)benzyl)-3-((6-phenylpyridazin-3-yl)amino)benzamide], the inhibition at 0.1 µM is less than 30% and the inhibition at 1 µM is 30 to 60%.
On to `O=C(N[C@@H]1C[C@H]1c1ccccc1)C12CC3CC(CC(Nc4ccc(-c5ccccc5)nn4)(C3)C1)C2` [Compound 166, N-((1R,2S)-2-phenylcyclopropyl)-3-((6-phenylpyridazin-3-yl)amino)adamantane-1-carboxamide], for which the inhibition at 0.1 µM was less than 30%.
`O=C(N[C@@H]1C[C@H]1c1ccc(Cl)c(F)c1)c1cccc(Nc2ncc(-c3cccc(F)c3)cn2)c1` [Compound 131, N-((1R,2S)-2-(4-chloro-3-fluorophenyl)cyclopropyl)-3-((5-(3-fluorophenyl)pyrimidin-2-yl)amino)benzamide]: the inhibition at 0.1 µM is less than 30% and the inhibition at 1 µM is no less than 60%.
The matching figures for `O=C(NC1(c2ccccc2)CC1)c1cccc(Nc2ncc(-c3cccc(F)c3)cn2)c1` [Compound 133, 3-((5-(3-fluorophenyl)pyrimidin-2-yl)amino)-N-(1-phenylcyclopropyl)benzamide]: less than 30% and 30 to 60%.
With `O=C(NCc1ccc(C(F)(F)F)cc1C(F)(F)F)c1cccc(Nc2ncc(-c3cccc(F)c3)cn2)c1` [Compound 208, N-(2,4-bis(trifluoromethyl)benzyl)-3-((5-(3-fluorophenyl)pyrimidin-2-yl)amino)benzamide], the inhibition at 0.1 µM was less than 30% and the inhibition at 1 µM was in the range of 30 to 60%.
For `Cc1ccc(CNC(=O)c2cccc(Nc3ncc(-c4cccc(F)c4)cn3)c2)cc1` [Compound A97], in that order: less than 30% and less than 30%.
Turning to `CN1CCC(CCNC(=O)c2cccc(Nc3ccc(-c4cccc(F)c4)cn3)c2)CC1` [Compound 139, 3-((5-(3-fluorophenyl)pyridin-2-yl)amino)-N-(2-(1-methylpiperidin-4-yl)ethyl)benzamide], the inhibition at 0.1 µM was less than 30% and the inhibition at 1 µM is less than 30%.
In the case of `COc1cc(F)ccc1CNC(=O)c1cccc(Nc2ccc(-c3cccc(F)c3)nn2)c1` [Compound 229, N-(4-fluoro-2-methoxybenzyl)-3-((6-(3-fluorophenyl)pyridazin-3-yl)amino)benzamide], the inhibition at 0.1 µM was less than 30% and the inhibition at 1 µM was less than 30%.
Take `O=C(Nc1ccc2c(c1)CNC2)c1cccc(Nc2ncc(-c3cccc(F)c3)cn2)c1` [Compound 192, 3-((5-(3-fluorophenyl)pyrimidin-2-yl)amino)-N-(isoindolin-5-yl)benzamide]: the inhibition at 0.1 µM is less than 30%.
With `O=C(NCc1cc(F)c(F)cc1F)c1cccc(Nc2ncc(-c3cccc(F)c3)cn2)c1` [Compound 209, 3-((5-(3-fluorophenyl)pyrimidin-2-yl)amino)-N-(2,4,5-trifluorobenzyl)benzamide], the inhibition at 0.1 µM is less than 30% and the inhibition at 1 µM is less than 30%.
As to `CN1CCC(CNC(=O)c2cccc(Nc3ccc(-c4cccc(F)c4)cn3)c2)C1` (centres unmarked) [Compound 145, 3-((5-(3-fluorophenyl)pyridin-2-yl)amino)-N-((1-methylpyrrolidin-3-yl)methyl)benzamide], the inhibition at 0.1 µM was less than 30% and the inhibition at 1 µM is less than 30%.
With `Cc1ccc(CCNC(=O)c2cccc(Nc3ncc(-c4ccccc4)cn3)c2)o1` [Compound 153, N-(2-(5-methylfuran-2-yl)ethyl)-3-((5-phenylpyrimidin-2-yl)amino)benzamide], the inhibition at 0.1 µM was less than 30% and the inhibition at 1 µM is less than 30%.
For the compound `N#CC1(NC(=O)c2cccc(Nc3ccc(-c4ccccc4)nn3)c2)CC1` [Compound 225, N-(1-cyanocyclopropyl)-3-((6-phenylpyridazin-3-yl)amino)benzamide], the inhibition at 0.1 µM was less than 30% and the inhibition at 1 µM fell in the range of 30 to 60%.
As for `O=C(NCc1ccccc1F)c1cccc(Nc2ncc(-c3cccc(F)c3)cn2)c1` [Compound 203, N-(2-fluorobenzyl)-3-((5-(3-fluorophenyl)pyrimidin-2-yl)amino)benzamide], the inhibition at 0.1 µM was less than 30% and the inhibition at 1 µM was less than 30%.
For the compound `O=C(Nc1cccc(F)c1)c1cccc(Nc2ncc(-c3cccc(F)c3)cn2)c1` [Compound A91], the inhibition at 0.1 µM is less than 30% and the inhibition at 1 µM was no less than 60%.
The matching figures for `O=C(NCc1ccc(C(F)(F)F)cc1)c1cccc(Nc2ncc(-c3cccc(F)c3)cn2)c1` [Compound 202, 3-((5-(3-fluorophenyl)pyrimidin-2-yl)amino)-N-(4-(trifluoromethyl)benzyl)benzamide]: less than 30% and 30 to 60%.
Turning to `COc1cc(F)ccc1CNC(=O)c1cccc(Nc2ccc(-c3ccccc3)nn2)c1` [Compound 214, N-(4-fluoro-2-methoxybenzyl)-3-((6-phenylpyridazin-3-yl)amino)benzamide], the inhibition at 0.1 µM was less than 30% and the inhibition at 1 µM was in the range of 30 to 60%.
On to `O=C(N[C@@H]1C[C@H]1c1ccccc1)C12CCC(Nc3ccc(-c4ccccc4)nn3)(CC1)C2` [Compound 168, (1s,4s)-N-((1R,2S)-2-phenylcyclopropyl)-4-((6-phenylpyridazin-3-yl)amino)bicyclo[2.2.1]heptane-1-carboxamide], for which the inhibition at 0.1 µM is less than 30%.
As for `CNc1cccc(NC(=O)c2cccc(Nc3ncc(-c4cccc(F)c4)cn3)c2)c1` [Compound 177, 3-((5-(3-fluorophenyl)pyrimidin-2-yl)amino)-N-(3-(methylamino)phenyl)benzamide], the inhibition at 0.1 µM was less than 30%.
The same measure, in the same setting: next, `O=C(N[C@@H]1C[C@H]1c1ccccc1)c1cc(Nc2ncc(-c3ccccc3)cn2)ccn1` [Compound 167, N-((1R,2S)-2-phenylcyclopropyl)-4-((5-phenylpyrimidin-2-yl)amino)picolinamide]: less than 30%.

For orientation: inhibition means the percentage by which the read-out fell short of the control.
